Three compounds from publication PMC5766630, “Non-estrogenic Xanthohumol Derivatives Mitigate Insulin Resistance and Cognitive Impairment in High-Fat Diet-induced Obese Mice” (Scientific Reports, 2018) can be followed below.

Common to all, as to assay type: in vivo, mouse
Test [1] concerns C57BL/6J mice fed a high-fat diet. Nature of the test: Glucose tolerance test. To be noted: 30 mg/kg/day, 6 h fast, glucose 2 g/kg i.p., n = 5; for Glucose tolerance test AUC, decrease compared with control, 4 weeks: 4 weeks of feeding; for Glucose tolerance test AUC, decrease compared with control, 11 weeks: 11 weeks of feeding. The method, then: Glucose tolerance tests were conducted after 4 and 11 weeks of feeding the experimental diets. Five mice from each treatment group were used in each glucose tolerance assay. Mice were fasted for 6 h prior to baseline blood glucose testing. Blood was collected from the mice by tail puncture, and glucose measurements were taken using a One Touch UltraMini glucometer (LifeScan, Inc., Milpitas, CA, USA). Mice were weighed and then given an i.p. injection of glucose equal to 2 g/kg body weight. Glucose readings were taken at 0 minutes (prior to glucose injection), and at 15 min, 30 min, 1 h, and 2 h after glucose injection.
Body weight, food intake, and metabolic measurements: data were analyzed using a one-way ANOVA in PROC GLM for single measures within animals (i.e., liver, plasma, and muscle metabolic measures) and a repeated-measures-in-time design ANOVA in PROC MIXED for repeated measures within animals (i.e., body weight, feed intake, and feed efficiency). The area-under-the-curve (AUC) for the glucose tolerance tests were calculated using the trapezoidal rule. Before statistical analysis, data were examined for variance homogeneity and normality. To achieve normality, liver, plasma, and muscle XN data and plasma insulin data were natural log-transformed. For statistical comparisons, the control group was compared with each XN metabolite group.

In test [2] the test system is skeletal muscle AMPK (pAMPKα/total AMPKα). As to the kind of experiment: AMPK activation in skeletal muscle by Western blot. To be noted: HFD mice, 30 mg/kg/day, 13 weeks, vs control. The procedure: Approximately 150 mg of frozen liver and muscle tissues were homogenized in tubes containing RIPA buffer with protease and phosphatase inhibitors plus ceramic beads (1.4 mm Ceramic, Bulk Beads, Fisher Scientific, Pittsburgh, PA, USA) using a Precellys 24 (PEQLAB Biotechnology GmbH, Germany). Liver tissue was homogenized for 1 × 30 sec at 6,500 rpm whereas muscle was homogenized for 3 × 30 sec at 6,500 rpm with 20 sec intervals. The homogenates were centrifuged at 15,700 × g for 10 minutes and aliquots (50 µg of protein) of the supernatant (lysate) were separated by SDS-PAGE using 4–15% MP TGX Gels (Bio-Rad # 4561083) and blotted onto nitrocellulose membranes. Membranes were blocked with 5% nonfat milk for 2 h and incubated with antibodies against pAMPK (Phospho-AMPKα (Thr172) Antibody, cat. no. #2531 Cell Signaling Technology, Danvers, MA, USA), AMPK (AMPKα Antibody, cat. no. #2532 Cell Signaling Technology, Danvers, MA, USA), or β-actin (Santa Cruz Biotechnology) for 1 h or overnight. After a second reaction with secondary antibodies (horseradish peroxidase-conjugated IgG goat antirabbit or goat antimouse antibodies), the protein bands on the nitrocellulose membranes were visualized by enhanced chemiluminescence substrate on a Biorad ChemiDocTM MP Imaging System (BioRad Laboratories Inc, Hercules, CA, USA). Band intensities were quantified by densitometry using Image J software.
Background: A western blot detects proteins with antibodies after separation by electrophoresis.

Test [3] relates to C57BL/6J mice fed a high-fat diet. As to the kind of experiment: Water maze: spatial learning and memory. The note with it: for Reached platform location faster than control (latency to first cross), probe trial: probe trial 24 h after last hidden platform trial; for Number of mice that spent more time in the correct quadrant than in any other quadrant / Number of mice that reached the platform location within 35 seconds: probe trial; for Number of mice that spent more time in the correct quadrant than in any other quadrant: control 3 out of 12; for Number of mice that reached the platform location within 35 seconds: control 5 out of 12; for Number of mice that reached the hidden platform at least twice within 50 seconds: trials 6 to 8, control 3 out of 12. The method, then:
After 13 weeks of feeding the experimental diets, general task learning, spatial learning and memory, and long-term spatial memory retention were tested using the water maze, as previously described[97],[98]. Briefly, the water maze consisted of a circular pool, filled with water (24 °C) made opaque white with non-toxic tempera paint (Prang, Dixon Ticonderoga Company, Heathrow, FL, USA). Spatial cues consisted of figures of geometric shape and other items such as toys and pieces of cloth. The cues were placed on the walls of both the room and the sides of the tank and were present throughout all water maze trials. All trials consisted of a maximum of 60 s in the water searching for the platform and 10 s on the platform. […] Trials on the same day were separated by 10 min. Mice were first trained to locate a visible escape platform (plexiglass circle, 12 cm diameter) submerged 2 cm below the surface of the water, by the use of a cue (a colored cylinder, 2.5 cm radius, 8 cm height) during the visible platform trials (1–2). The location of the platform during visible platform trials was moved between trials to avoid procedural biases in task learning to a specific quadrant. Subsequent to the visible platform training, mice were trained to locate the platform without a visible cue during the hidden platform trials (3–8), which required the mice to rely on extra-maze cues for spatial reference and orientation. To analyze learning curves, time to reach the platform (latency) and swim speeds were assessed. Spatial memory retention was assessed 24 h following the conclusion of the eighth trial of hidden platform training in the probe trial (no platform). For data analysis, the pool was divided conceptually into four quadrants. Time spent searching in the target quadrant compared to the time spent in the three non-target quadrants and the latency to the first crossing of the platform location were analyzed. Following the probe trial, mice were administered two additional visible platform trials. Thigmotaxis, a tendency to remain close the walls, is commonly used as an index of anxiety in mice. For thigmotaxis, we analyzed the time (%) mice spent swimming in the outer part of the pool (<10 cm from edge of pool) during the visible trials. Water maze performance was tracked and analyzed using Ethovision software set at 6 samples/s (Noldus Information Technology, Leesburg, VA). Heat map images were generated using EthoVision Heatmap Generator software and representative images were selected from mice closest to the group mean values for time spent in the quadrant target.
Water maze learning curves: data, except for spatial learning, were analyzed using a one-way ANOVA for single measures within animals and a repeated-measures-in-time design ANOVA for repeated measures within animals. To evaluate spatial learning, we first compared at each session the control versus each XN metabolite group. For further analysis of spatial learning, the first 3 sessions were used for training of spatial learning and the last 3 session for spatial learning. […] To show spatial learning, mice had to reach the platform during the last 3 evaluation sessions at least twice within 50 seconds. Fisher’s exact test was used to compare control versus each XN metabolite group.

Turning to `COc1cc(O)c(CC=C(C)C)c(O)c1C(=O)CCc1ccc(O)cc1` [DXN, α,β-Dihydroxanthohumol], in test [1], the “Glucose tolerance test AUC, decrease compared with control, 4 weeks” value (“Glucose tolerance test AUC, decrease … 4 weeks” for short) was determined as 46% and the “Glucose tolerance test AUC, decrease compared with control, 11 weeks” value (“Glucose tolerance test AUC, decrease … 11 weeks” for short) amounted to 35%. Further, in test [2], the “Decrease of skeletal muscle AMPK activation (pAMPK/AMPK)” value (from here on “Decrease … (pAMPK/AMPK)”) is given as 22%. Further, the “Slower swim speed versus HFD only” value in test [3] (during the hidden platform trials) is 10%. The “Reached hidden platform faster than HFD only, average of trials 6 to 8” value in test [3] (hidden platform) worked out at 28%. In addition, in test [3], the “Reached platform location faster than control (latency to first cross), probe trial” value was determined as 58%; the “Number of mice that spent more time in the correct quadrant than in any other quadrant” value (from here on “Number of mice that spent more time”) is reported as 9 out of 12; the “Number of mice that reached the platform location within 35 seconds” value was “all but one”; the “Number of mice that reached the hidden platform at least twice within 50 seconds” value (from here on “Number … at least twice within 50 seconds”) is 9 out of 12.

As for `COc1cc(O)c(CCC(C)C)c(O)c1C(=O)CCc1ccc(O)cc1` [TXN, tetrahydroxanthohumol], in test [1], the “Glucose tolerance test AUC, decrease … 4 weeks” value was determined as 61% and the “Glucose tolerance test AUC, decrease … 11 weeks” value stood at 45%. Further, in test [2], the “Decrease … (pAMPK/AMPK)” value came to 25%. In addition, in test [3] (hidden platform), the “Reached hidden platform faster than HFD only, average of trials 6 to 8” value is 45%; the “Reached hidden platform faster than HFD only, trial 6” value stood at 44%; the “Reached hidden platform faster than HFD only, trial 8” value is listed as 35%. For the same compound, in test [3] (hidden platform trial 3), the “Reached hidden platform faster than HFD only, first hidden platform trial (trial #3)” value turned out to be 18%. Also, in test [3], the “Reached platform location faster than control (latency to first cross), probe trial” value is 45%; the “Number of mice that spent more time” value was “all but one”; the “Number of mice that reached the platform location within 35 seconds” value is given as “all but one”; the “Number … at least twice within 50 seconds” value was “all”. Further, the “Reached visible platform faster than control, first trial” value in test [3] (visible platform trial 1, HFD mice, 30 mg/kg/day, 13 weeks) was 24%.

Consider `COc1cc(O)c(CC=C(C)C)c(O)c1C(=O)/C=C/c1ccc(O)cc1` [XN, 3′-[3,3-dimethylallyl]-2′,4′,4-trihydroxy-6′-methoxychalcone], for which, in test [1], the “Glucose tolerance test AUC, decrease … 4 weeks” value came to 43% and the “Glucose tolerance test AUC, decrease … 11 weeks” value was 12%. Further, in test [2], the “Decrease … (pAMPK/AMPK)” value is on record as 19%. Further, in test [3] (60-s probe trial), the “More time in the correct (Target) quadrant than control” value is recorded as 6.8%. In test [3] (hidden platform), the “Reached hidden platform faster than HFD only, trial 6” value came to 47%; the “Reached hidden platform faster than HFD only, trial 7” value was determined as 43%; the “Reached hidden platform faster than HFD only, trial 8” value stood at 49%. Besides, in test [3], the “Reached platform location faster than control (latency to first cross), probe trial” value is listed as 45%; the “Number of mice that spent more time” value is on record as “all but one”; the “Number of mice that reached the platform location within 35 seconds” value was “all but one”; the “Number … at least twice within 50 seconds” value is reported as “all”.
